Values of other authors in US20030166006A1, “Glucose-1-phosphate thymidylyltransferase and method for selecting inhibitors thereof” (priority 2000, published 2003).

Biological target: RmlA from Pseudomonas aeruginosa (Pseudomonas aeruginosa, UniProt Q9HU22)
Details: allosteric feedback inhibition by final product of the four enzyme pathway; Melo & Glaser, 1965

RmlA from Pseudomonas aeruginosa, sequence (Q9HU22 1-293): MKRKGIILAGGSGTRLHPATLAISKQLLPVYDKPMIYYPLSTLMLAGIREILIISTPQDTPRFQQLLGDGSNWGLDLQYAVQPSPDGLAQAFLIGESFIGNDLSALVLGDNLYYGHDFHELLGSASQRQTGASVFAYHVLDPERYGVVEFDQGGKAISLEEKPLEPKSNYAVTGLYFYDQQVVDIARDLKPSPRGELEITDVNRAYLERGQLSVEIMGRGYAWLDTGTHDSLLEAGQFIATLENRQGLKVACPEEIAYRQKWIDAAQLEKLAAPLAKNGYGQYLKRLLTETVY

Cc1cn([C@H]2C[C@H](O)[C@@H](COP(=O)(O)OP(=O)(O)OC3OC(C)C(O)C(O)C3O)O2)c(=O)[nH]c1=O (stereo partly drawn) [dTDP-rhamnose, 2′-deoxy-thymidylyl-diphospho-L-rhamnose]
inhibition of RmlA: strongly inhibited
